Source: ChEMBL document CHEMBL5260813, “An overview on the recent developments of 1,2,4-triazine derivatives as anticancer compounds” (Eur J Med Chem, 2017)

Key:
HepG2 = assay: Antiproliferative activity against human HepG2 cells assessed as cell growth inhibition; type: functional, cell-based
MCF7 [1] = assay: Antiproliferative activity against human MCF7 cells assessed as inhibition of cell growth by MTT assay; type: functional, cell-based
MDA-MB-231 [2] = assay: Antiproliferative activity against human MDA-MB-231 cells assessed as inhibition of cell growth by MTT assay; type: functional, cell-based
MCF7 [3] = assay: Antiproliferative activity against human MCF7 cells assessed as inhibition of cell growth by [3H]thymidine incorporation assay; type: functional, cell-based
MDA-MB-231 [4] = assay: Antiproliferative activity against human MDA-MB-231 cells assessed as inhibition of cell growth by [3H]thymidine incorporation assay; type: functional, cell-based
MCF7 [5] = assay: Antiproliferative activity against human MCF7 cells assessed as inhibition of cell growth; type: functional, cell-based
HCT-116 = assay: Antiproliferative activity against human HCT-116 cells assessed as inhibition of cell growth; type: functional, cell-based
OVCAR-4 = assay: Antiproliferative activity against human OVCAR-4 cells assessed as cell growth inhibition; type: functional, cell-based
MCF7 [6] = assay: Cytotoxicity against human MCF7 cells assessed as inhibition of cell growth incubated for 72 hrs by MTT assay; type: functional, cell-based; conditions: MCF7, 72 h
HL-60 [7] = assay: Antiproliferative activity against human HL-60 cells assessed as inhibition of cell growth incubated for 72 hrs by MTT assay; type: functional, cell-based; conditions: HL-60, 72 h
MOLT-4 = assay: Antiproliferative activity against human MOLT-4 cells assessed as inhibition of cell growth incubated for 72 hrs by MTT assay; type: functional, cell-based; conditions: MOLT-4, 72 h
HL-60 [8] = assay: Antiproliferative activity against human HL-60 cells assessed as inhibition of cell growth under normoxia condition incubated for 72 hrs by MTT assay; type: functional, cell-based; conditions: HL-60, 72 h
Bel-7402 [9] = assay: Antiproliferative activity against human Bel-7402 cells assessed as inhibition of cell growth under normoxia condition incubated for 72 hrs by MTT assay; type: functional, cell-based; conditions: Bel-7402, 72 h
ECa-109 cell line [10] = assay: Antiproliferative activity against human Eca-109 cells assessed as inhibition of cell growth under normoxia condition incubated for 72 hrs by MTT assay; type: functional, cell-based; conditions: ECa-109, 72 h
PC-3 [11] = assay: Antiproliferative activity against human PC-3 cells assessed as inhibition of cell growth under normoxia condition incubated for 72 hrs by MTT assay; type: functional, cell-based; conditions: PC-3, 72 h
MCF7 [12] = assay: Antiproliferative activity against human MCF7 cells assessed as inhibition of cell growth under normoxia condition incubated for 72 hrs by MTT assay; type: functional, cell-based; conditions: MCF7, 72 h
HL-60 [13] = assay: Antiproliferative activity against human HL-60 cells assessed as inhibition of cell growth under hypoxia condition incubated for 72 hrs by MTT assay; type: functional, cell-based; conditions: HL-60, 72 h
Bel-7402 [14] = assay: Antiproliferative activity against human Bel-7402 cells assessed as inhibition of cell growth under hypoxia condition incubated for 72 hrs by MTT assay; type: functional, cell-based; conditions: Bel-7402, 72 h
ECa-109 cell line [15] = assay: Antiproliferative activity against human Eca-109 cells assessed as inhibition of cell growth under hypoxia condition incubated for 72 hrs by MTT assay; type: functional, cell-based; conditions: ECa-109, 72 h
MCF7 [16] = assay: Antiproliferative activity against human MCF7 cells assessed as inhibition of cell growth under hypoxia condition incubated for 72 hrs by MTT assay; type: functional, cell-based; conditions: MCF7, 72 h
PC-3 [17] = assay: Antiproliferative activity against human PC-3 cells assessed as inhibition of cell growth under hypoxia condition incubated for 72 hrs by MTT assay; type: functional, cell-based; conditions: PC-3, 72 h
[18] = Ratio of IC50 for antiproliferative activity against human HL-60 cells assessed as inhibition of cell growth under normoxia condition to IC50 for antiproliferative activity against human HL-60 cells assessed as inhibition of cell growth under hypoxia condition; type: functional
[19] = Ratio of IC50 for antiproliferative activity against human Bel-7402 cells assessed as inhibition of cell growth under normoxia condition to IC50 for antiproliferative activity against human Bel-7402 cells assessed as inhibition of cell growth under hypoxia condition; type: functional
[20] = Ratio of IC50 for antiproliferative activity against human Eca-109 cells assessed as inhibition of cell growth under normoxia condition to IC50 for antiproliferative activity against human Eca-109 cells assessed as inhibition of cell growth under hypoxia condition; type: functional
[21] = Ratio of IC50 for antiproliferative activity against human PC-3 cells assessed as inhibition of cell growth under normoxia condition to IC50 for antiproliferative activity against human PC-3 cells assessed as inhibition of cell growth under hypoxia condition; type: functional
[22] = target: T1, Interleukin-1 receptor-associated kinase 4 (Homo sapiens, UniProt Q9NWZ3); assay: Inhibition of human GST-tagged IRAK4 incubated for 30 mins in presence of ATP by fluorescent polarization assay
T1 sequence (Q9NWZ3 whole entry): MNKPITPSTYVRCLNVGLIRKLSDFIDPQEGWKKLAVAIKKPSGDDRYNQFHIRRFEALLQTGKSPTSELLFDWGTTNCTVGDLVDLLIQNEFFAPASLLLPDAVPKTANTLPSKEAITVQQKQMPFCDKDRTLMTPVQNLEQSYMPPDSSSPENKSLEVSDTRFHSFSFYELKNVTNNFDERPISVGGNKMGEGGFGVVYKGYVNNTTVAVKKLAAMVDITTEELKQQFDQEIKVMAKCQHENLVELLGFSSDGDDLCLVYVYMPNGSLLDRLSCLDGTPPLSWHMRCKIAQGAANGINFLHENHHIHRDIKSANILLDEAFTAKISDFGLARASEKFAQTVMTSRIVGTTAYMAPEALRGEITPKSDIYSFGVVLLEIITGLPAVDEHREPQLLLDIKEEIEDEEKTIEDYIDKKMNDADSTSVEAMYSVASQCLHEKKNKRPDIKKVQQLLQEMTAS

[23] = Ratio of IC50 for antiproliferative activity against human MCF7 cells assessed as inhibition of cell growth under normoxia condition to IC50 for antiproliferative activity against human MCF7 cells assessed as inhibition of cell growth under hypoxia condition; type: functional
[24] = tested on: Panel NCI-60 (60 carcinoma cell lines); assay: Antiproliferative activity against human Panel NCI-60 (60 carcinoma cell lines) assessed as cell growth inhibition incubated for 48 hrs by SRB assay; type: functional
BT-474 = assay: Antiproliferative activity against human BT-474 cells assessed as inhibition of cell growth; type: functional, cell-based

O=C1CN2C(=O)/C(=C/c3ccc([N+](=O)[O-])cc3)N=C(c3ccccc3)N2C(=S)N1
IC50 (HepG2): 2.67 µM

c1ccc(-c2nnc(SSc3nnc(-c4ccccc4)c(-c4ccccc4)n3)nc2-c2ccccc2)cc1
IC50 (MCF7 [1]): 25 µM | IC50 (MDA-MB-231 [2]): 25 µM | IC50 (MCF7 [3]): 35 µM | IC50 (MDA-MB-231 [4]): 39 µM

c1ccc(-c2cc(SN3CCOCC3)nnc2-c2ccccc2)cc1
IC50 (MCF7 [1]): 91 µM | IC50 (MDA-MB-231 [2]): 88 µM | IC50 (MCF7 [3]): 87 µM | IC50 (MDA-MB-231 [4]): 84 µM

c1ccc(-c2cc(SN3CCCC3)nnc2-c2ccccc2)cc1
IC50 (MCF7 [1]): 30 µM | IC50 (MDA-MB-231 [2]): 25 µM | IC50 (MCF7 [3]): 15 µM | IC50 (MDA-MB-231 [4]): 40 µM

O=c1c(/C=C/c2cccs2)nnc(S)n1/N=C/c1ccccc1
IC50 (HepG2): 8.79 µM | IC50 (MCF7 [5]): 8.79 µM | IC50 (HCT-116): 8.79 µM

Cc1c(C#N)c2nnc(C#N)c(N)n2c1-c1ccccc1
IC50 (OVCAR-4): 2.77 µM

CSc1nnc2c(n1)-c1cccc3cccc-2c13
IC50 (MCF7 [6]): 30 µM | IC50 (HL-60 [7]): 30 µM | IC50 (MOLT-4): 30 µM

CC(=O)c1nnc2c(C#N)c(C)c(-c3ccccc3)n2c1C
IC50 (OVCAR-4): 2.77 µM

O=[N+]([O-])c1ccccc1CSc1nnc2c(n1)-c1cccc3cccc-2c13
IC50 (MCF7 [6]): 30 µM | IC50 (HL-60 [7]): 30 µM | IC50 (MOLT-4): 30 µM

CCSc1nnc2c(n1)-c1cccc3cccc-2c13
IC50 (MCF7 [6]): 30 µM | IC50 (HL-60 [7]): 30 µM | IC50 (MOLT-4): 30 µM

Nn1c(SC2Sc3nnc(/C=C/c4cccs4)c(=O)n3NC2=O)nnc(/C=C/c2cccs2)c1=O (configuration not stated)
IC50 (HepG2): 8.79 µM | IC50 (MCF7 [5]): 8.79 µM | IC50 (HCT-116): 8.79 µM

CC(=O)Nn1c(S)nnc(/C=C/c2cccs2)c1=O
IC50 (HepG2): 8.79 µM | IC50 (MCF7 [5]): 8.79 µM | IC50 (HCT-116): 8.79 µM

CCNc1n[n+]([O-])c2cc([N+](=O)[O-])ccc2[n+]1[O-]
IC50 (HL-60 [8]): 0.2 µM | IC50 (Bel-7402 [9]): 0.2 µM | IC50 (ECa-109 cell line [10]): 0.2 µM | IC50 (PC-3 [11]): 0.2 µM | IC50 (MCF7 [12]): 0.2 µM | IC50 (HL-60 [13]): 0.2 µM | IC50 (Bel-7402 [14]): 0.2 µM | IC50 (ECa-109 cell line [15]): 0.2 µM | IC50 (MCF7 [16]): 0.2 µM | IC50 (PC-3 [17]): 0.2 µM | Ratio IC50 [18]: 1.4 | Ratio IC50 [19]: 1.6 | Ratio IC50 [20]: 2.2 | Ratio IC50 [21]: 1.9

NC(=O)c1nn(CCO)cc1NC(=O)c1ccc2cnc(NC3CCCCC3N)nn12 (configuration not stated)
IC50 [22]: 0.003 µM

Clc1ccc(CSc2nnc3c(n2)-c2cccc4cccc-3c24)cc1Cl
IC50 (MCF7 [6]): 30 µM | IC50 (HL-60 [7]): 30 µM | IC50 (MOLT-4): 30 µM

Cc1c(-c2ccccc2)c(C#N)c2nnc(C#N)c(N)n12
IC50 (OVCAR-4): 2.77 µM

[O-][n+]1nc(NCc2ccccc2)[n+]([O-])c2ccc(Cl)cc21
IC50 (HL-60 [8]): 0.2 µM | IC50 (Bel-7402 [9]): 0.2 µM | IC50 (ECa-109 cell line [10]): 0.2 µM | IC50 (PC-3 [11]): 0.2 µM | IC50 (MCF7 [12]): 0.2 µM | IC50 (HL-60 [13]): 0.2 µM | IC50 (Bel-7402 [14]): 0.2 µM | IC50 (ECa-109 cell line [15]): 0.2 µM | IC50 (MCF7 [16]): 0.2 µM | IC50 (PC-3 [17]): 0.2 µM | Ratio IC50 [18]: 1 | Ratio IC50 [19]: 1.8 | Ratio IC50 [20]: 3.2 | Ratio IC50 [23]: 1.1 | Ratio IC50 [21]: 1.4

c1ccc(CSc2nnc3c(n2)-c2cccc4cccc-3c24)cc1
IC50 (MCF7 [6]): 30 µM | IC50 (HL-60 [7]): 30 µM | IC50 (MOLT-4): 30 µM

[O-][n+]1nc(Nc2ccccc2)[n+]([O-])c2ccc(Cl)cc21
IC50 (HL-60 [8]): 0.2 µM | IC50 (Bel-7402 [9]): 0.2 µM | IC50 (ECa-109 cell line [10]): 0.2 µM | IC50 (PC-3 [11]): 0.2 µM | IC50 (MCF7 [12]): 0.2 µM | IC50 (HL-60 [13]): 0.2 µM | IC50 (Bel-7402 [14]): 0.2 µM | IC50 (ECa-109 cell line [15]): 0.2 µM | IC50 (MCF7 [16]): 0.2 µM | IC50 (PC-3 [17]): 0.2 µM | Ratio IC50 [18]: 6.9 | Ratio IC50 [20]: 2.8 | Ratio IC50 [23]: 3 | Ratio IC50 [21]: 1.3

Clc1ccc(CSc2nnc3c(n2)-c2cccc4cccc-3c24)c(Cl)c1
IC50 (MCF7 [6]): 30 µM | IC50 (HL-60 [7]): 30 µM | IC50 (MOLT-4): 30 µM

O=C1CNN(CSc2nc3ccc(I)cc3c(=O)n2Cc2ccccc2)C=N1
GI50 [24]: 22.6 µM | TGI [24]: 61.4 µM | CC50 ([24]; read-out: LC50 (the source's name)): 89.3 µM

CCn1nc(-c2cccs2)nc2c(=O)n(C)c(=O)nc1-2
IC50 (BT-474): 0.9 µM

Cc1nc2c(=O)n(C)c(=O)nc-2n(C)n1
IC50 (BT-474): 0.9 µM
